Experimental data as given in patent publication US20240336591A1, “ORGANIC PYRIDINE-PYRAZOLE COMPOUNDS AND THEIR USES” (priority 2021, published 2024).
Where two headings read alike, the source gives them in different places.

Tests used:
Human PDE10A2 [1] = molecular target: T1, Human PDE10A2 (Homo sapiens (Human), UniProt Q9Y233); assay: Biochemical human PDE10A activity assay - PDE10A2 Phosphate Sensor Assay; settings: cGMP 3 μM substrate, PDE10A2 0.25 nM
Procedure: Biochemical Human PDE10A Activity Assay—PDE10A2 Phosphate Sensor Assay
Semi Log compound dilutions starting at a final concentration of 50 μM were dispensed into a black 384 well plate alongside, DMSO and an Inhibited control using the Echo Acoustic dispenser. […] Data was analysed using a 4-parameter fit.

Human PDE10A2 [2] = molecular target: T1, Human PDE10A2; assay: Cell based human PDE10A activity assay - cAMP HTRF assay in HEK 293 rhPDE10A2 cell line
Procedure: Semi log compound dilutions starting at a final concentration of 10 μM were dispensed into a white 384 well plate, alongside DMSO and an Inhibited control using the Tecan D300e digital dispenser. HEK 293 cells overexpressing recombinant human PDE10A2 were seeded on top of the compounds at 2500 cells/well in a volume 5 μL/well. The plate was incubated at room temperature for 60 minutes. To induce endogenous cAMP, 5 μL/well of Forskolin at a final assay concentration of 10 μM was added to the plate. The plate was incubated at room temperature for a further 45 minutes. cAMP HTRF detection reagents were added, and the plate was incubated for 60 minutes at room temperature. […] Data was analysed using a 4-parameter fit.

[3] = Determination of CNS penetration in vivo (brain to plasma partitioning, Kpuu); set-up: species or system Male Sprague Dawley Rats; settings: male, Sprague-Dawley, brain / plasma (unbound); rat, IV, 1 mg/kg, 10-30 min post dose
[4] = tested on: inflamed colonic mucosa from ulcerative colitis patients; assay: Ex-vivo colon biopsy culture from ulcerative colitis patients, cytokine release (Protocol 1); format: cell-based, human; settings: 100 nM; UC donor 3; vs vehicle control
Procedure: The effect of selective PDE10A inhibition was tested on inflamed colonic mucosa from ulcerative colitis patients taken during routine endoscopy (Protocol 1 detailed below). These samples retain a disease phenotype in ex-vivo culture, secrete high basal levels of inflammatory cytokines, and represent a highly relevant and translational disease model. The effect of the PDE10A inhibitors on levels of the inflammatory cytokines IL-6 and IL-8 released from these tissue samples were measured. Both IL-6 and IL-8 are key regulators in ulcerative colitis pathology and their levels correlate with disease severity (Waldner M J et al. Master regulator of intestinal disease: IL-6 in chronic inflammation and cancer development. Semin Immunol. 26(1), 75-9 (2014); Bernardo D et al. IL-6 promotes immune responses in human ulcerative colitis and induces a skin-homing phenotype in the dendritic cells and T-cells they stimulate. Eur J Immunol. 42(5), 1337-53 (2012); Pearl D S, Cytokine mucosal expression in ulcerative colitis, the relationship between cytokine release and disease activity. J Crohns Colitis. 7(6), 481-9 (2013)).
These colon biopsies retain an inflammatory phenotype and secrete high levels of inflammatory cytokines in ex-vivo culture.
Biopsy tissue was obtained from inflamed colonic mucosa from ulcerative colitis or Crohn's disease patients during routine endoscopy. Ex-vivo biopsy cultures for the analysis of inflammatory cytokine biomarkers were run as previously described (Vossenkämper A. et al. A CD3- specific antibody reduces cytokine production and alters phosphoprotein profiles in intestinal tissues from patients with inflammatory bowel disease. Gastroenterology, 147, 172-183 (2014)). Biopsies were incubated in organ culture for 24 h with the addition of positive control compounds, or specific PDE10A inhibitors. Supernatants collected at the end of the experiment were snap-frozen and stored at −70° C. For the measurement of cytokines, the frozen culture supernatants were thawed and analysed for levels of the inflammatory cytokines using Luminex cytokine assay kits (R&D Systems) and an R&D Systems MAGPIX® analyser. Mean values ±SDs were calculated for the levels of spontaneous cytokine production measured in biopsy culture supernatants from each treatment group.

[5] = Forskolin 10 μM, read-out: cAMP HTRF Assay in HEK 293 rhPDE10A2 cell line (pIC50) (converted)

T1 sequence (Q9Y233 267-1055): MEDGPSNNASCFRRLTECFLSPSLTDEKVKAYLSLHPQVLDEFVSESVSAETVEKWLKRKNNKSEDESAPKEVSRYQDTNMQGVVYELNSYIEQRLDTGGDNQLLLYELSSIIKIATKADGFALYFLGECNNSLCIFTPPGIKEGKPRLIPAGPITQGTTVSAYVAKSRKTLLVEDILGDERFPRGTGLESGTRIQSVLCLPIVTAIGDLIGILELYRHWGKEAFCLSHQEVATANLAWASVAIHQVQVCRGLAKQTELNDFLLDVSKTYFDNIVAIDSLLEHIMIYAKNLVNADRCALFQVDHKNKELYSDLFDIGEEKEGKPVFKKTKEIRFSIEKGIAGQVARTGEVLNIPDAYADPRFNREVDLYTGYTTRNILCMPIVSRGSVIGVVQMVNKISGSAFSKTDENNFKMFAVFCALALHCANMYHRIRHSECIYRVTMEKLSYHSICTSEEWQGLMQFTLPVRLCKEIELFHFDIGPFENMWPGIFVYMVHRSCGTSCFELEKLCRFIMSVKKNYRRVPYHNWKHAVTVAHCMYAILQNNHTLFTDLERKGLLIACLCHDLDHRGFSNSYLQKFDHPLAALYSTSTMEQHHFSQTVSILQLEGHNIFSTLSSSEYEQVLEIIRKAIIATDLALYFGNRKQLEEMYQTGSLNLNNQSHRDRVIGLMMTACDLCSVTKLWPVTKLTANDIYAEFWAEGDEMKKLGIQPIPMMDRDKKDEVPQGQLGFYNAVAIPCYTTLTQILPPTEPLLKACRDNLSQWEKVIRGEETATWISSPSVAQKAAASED

Compound	PDE10A2 Phosphate Sensor Enzyme Assay (pIC50) (Human PDE10A2 [1])	IC50 (Human PDE10A2 [2])	Kp uu [3]	secreted levels of IL-6 [4]	secreted levels of IL-8 [4]	IC50 (Human PDE10A2 [2]; [5])
Cn1cc(-c2ccncc2)c(-c2ccc(OCc3nc4ccccc4cc3C(=O)O)cc2)n1 [Example 3, 2-[[4-[1-Methyl-4-(4-pyridyl)pyrazol-3-yl]phenoxy]methyl]quinoline-3-carboxylic acid]	10.1	2.75 nM	0.56			
Cn1cc(-c2ccncc2)c(-c2ccc(OCc3cc(C(=O)O)c4ccccc4n3)cc2)n1 [Example 4, Ammonium 2-[[4-[1-methyl-4-(4-pyridyl)pyrazol-3-yl]phenoxy]methyl]quinoline-4-carboxylate]	10.1	0.813 nM	0.32	significantly reduce	significantly reduce	
O=C(O)Cn1cc(-c2ccncc2)c(-c2ccc(OCc3ccc4ccccc4n3)cc2)n1 [Example 5, 2-[4-(4-Pyridyl)-3-[4-(2-quinolylmethoxy)phenyl]pyrazol-1-yl]acetic acid]	9.41	75.9 nM	0.02			
Cn1cc(-c2ccncc2)c(-c2ccc(OCc3nc4ccccc4cc3C(=O)NS(C)(=O)=O)cc2)n1 [Example 9, 2-[[4-[1-Methyl-4-(4-pyridyl)pyrazol-3-yl]phenoxy]methyl]-N-methylsulfonyl-quinoline-3-carboxamide]	10.1	1.66 nM	0.37	significantly reduce	significantly reduce	
Cn1cc(-c2ccncc2)c(-c2ccc(OCc3nc4ccccc4cc3C(=O)N=S(C)(C)=O)cc2)n1 [Example 10, N-[Dimethyl(oxo)-λ6-sulfanylidene]-2-[[4-[1-methyl-4-(4-pyridyl)pyrazol-3-yl]phenoxy]methyl]quinoline-3-carboxamide]	10	1.1 nM	0.02	significantly reduce	significantly reduce	
Cn1cc(-c2ccncc2)c(-c2ccc(OCc3cc(C(=O)N=S(C)(C)=O)c4ccccc4n3)cc2)n1 [Example 11, N-[Dimethyl(oxo)-λ6-sulfanylidene]-2-[[4-[1-methyl-4-(4-pyridyl)pyrazol-3-yl]phenoxy]methyl]quinoline-4-carboxamide]	10.1	1 nM	0.02	significantly reduce	significantly reduce	
CN(C(=O)c1cc2ccccc2nc1COc1ccc(-c2nn(C)cc2-c2ccncc2)cc1)S(C)(=O)=O [Example 15, N-Methyl-2-[[4-[1-methyl-4-(4-pyridyl)pyrazol-3-yl]phenoxy]methyl]-N-methylsulfonyl-quinoline-3-carboxamide]	9.22	10.7 nM	0.06			
Cn1cc(-c2ccncc2)c(-c2ccc(OCc3nc(C(=O)N=S(C)(C)=O)c4ccccc4n3)cc2)n1 [Example 17, N-[Dimethyl(oxo)-λ6-sulfanylidene]-2-[[4-[1-methyl-4-(4-pyridyl)pyrazol-3-yl]phenoxy]methyl]quinazoline-4-carboxamide]	9.92	3.02 nM	0.06	significantly reduce	significantly reduce	
Cn1cc(-c2ccncc2)c(-c2ccc(OCc3nc4ccccc4nc3C(=O)N=S(C)(C)=O)cc2)n1 [Example 18, N-[Dimethyl(oxo)-λ6-sulfanylidene]-3-[[4-[1-methyl-4-(4-pyridyl)pyrazol-3-yl]phenoxy]methyl]quinoxaline-2-carboxamide]	9.34	102 nM	0.03			
Cn1cc(-c2ccncc2)c(-c2ccc(OCc3nc4cccnc4cc3C(=O)N=S(C)(C)=O)cc2)n1 [Example 19, N-[Dimethyl(oxo)-λ6-sulfanylidene]-2-[[4-[1-methyl-4-(4-pyridyl)pyrazol-3-yl]phenoxy]methyl]-1,5-naphthyridine-3-carboxamide]	9.43	5.37 nM	0.05	significantly reduce	significantly reduce	
CS(=N)(=O)c1cc(COc2ccc(-c3n[nH]cc3-c3ccncc3)cc2)nc2ccccc12 (centres unmarked) [Example 33, Imino-methyl-oxo-[2-[[4-[4-(4-pyridyl)-1H-pyrazol-3-yl]phenoxy]methyl]-4-quinolyl]-λ6-sulfane]	9.32					8.91 nM
Cn1cc(-c2ccncc2)c(-c2ccc(OCc3cc(NS(C)(=O)=O)c4ccccc4n3)cc2)n1 [Example 34, N-[2-[[4-[1-Methyl-4-(4-pyridyl)pyrazol-3-yl]phenoxy]methyl]-4-quinolyl]methanesulfonamide]	9.54					1.2 nM
CNC(=O)Nc1cc(COc2ccc(-c3nn(C)cc3-c3ccncc3)cc2)nc2ccccc12 [Example 35, 1-Methyl-3-[2-[[4-[1-methyl-4-(4-pyridyl)pyrazol-3-yl]phenoxy]methyl]-4-quinolyl]urea]	9.67					3.47 nM
Cn1cc(-c2ccncc2)c(-c2ccc(OCc3cc(NC(=O)N=S(C)(C)=O)c4ccccc4n3)cc2)n1 [Example 36, 1-[Dimethyl(oxo)-λ6-sulfanylidene]-3-[2-[[4-[1-methyl-4-(4-pyridyl)pyrazol-3-yl]phenoxy]methyl]-4-quinolyl]urea]	9.46					16.6 nM
Cn1cc(-c2ccncc2)c(-c2ccc(OCc3nc(N4CCS(=O)(=O)CC4)c4ccccc4n3)cc2)n1 [Example 37, 4-[2-[[4-[1-Methyl-4-(4-pyridyl)pyrazol-3-yl]phenoxy]methyl]quinazolin-4-yl]-1,4-thiazinane 1,1-dioxide]	9.65					1.48 nM
Cn1cc(-c2ccncc2)c(-c2ccc(OCc3nc(N4CCNC(=O)C4)c4ccccc4n3)cc2)n1 [Example 38, 4-[2-[[4-[1-Methyl-4-(4-pyridyl)pyrazol-3-yl]phenoxy]methyl]quinazolin-4-yl]piperazin-2-one]	10.1					0.269 nM
Cn1cc(-c2ccncc2)c(-c2ccc(OCc3nc(N4CC(N)C4)c4ccccc4n3)cc2)n1 [Example 39, 1-[2-[[4-[1-Methyl-4-(4-pyridyl)pyrazol-3-yl]phenoxy]methyl]quinazolin-4-yl]azetidin-3-amine]	9.46					24.5 nM
Cn1cc(-c2ccncc2)c(-c2ccc(OCc3nc(N4CCNCC4)c4ccccc4n3)cc2)n1 [Example 40, 2-[[4-[1-Methyl-4-(4-pyridyl)pyrazol-3-yl]phenoxy]methyl]-4-piperazin-1-yl-quinazoline]	8.98					4.57 nM
Cn1cc(-c2ccncc2)c(-c2ccc(OCc3nc4ccccc4nc3N3CC(N)C3)cc2)n1 [Example 41, 1-[3-[[4-[1-Methyl-4-(4-pyridyl)pyrazol-3-yl]phenoxy]methyl]quinoxalin-2-yl]azetidin-3-amine]	9.45	7.59 nM				
Cn1cc(-c2ccncc2)c(-c2ccc(OCc3nc4ccccc4nc3N3CCNCC3)cc2)n1 [Example 42, 2-[[4-[1-Methyl-4-(4-pyridyl)pyrazol-3-yl]phenoxy]methyl]-3-piperazin-1-yl-quinoxaline]	8.96	12.3 nM				
